The results in this text go back to PubChem BioAssay AID2060892 (Molecular Pharmacology Branch, DTP, NCI, 2025).

Structures are written as SMILES. “And” between values parts separate entries of the source, which are not always exact repeats. Equal entries are not always repeated. Where only a bound is given, the exact number is not on record here.

In the assay the test system is HOP-62 complex spheroids with HUVEC/MSC, viability. Description: Anticancer human tumor HOP-62 cell line growth inhibition [RAS].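 As to all read-outs here: spheroids exposed to agents for seven days before readout.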 The note with it: for viability, T/C: stronger effect = lower value. An excerpt: RAS pathway inhibitors in Combinations in Complex Spheroids
A high-throughput screen of multi-cell type tumor spheroids was designed to identify active combinations of RAS pathway inhibitors and targeted small molecules. Complex spheroids include a stromal component modeled by human endothelial cells (HUVEC) and fibroblasts modeled by human mesenchymal stem cells (MSCs). The concentration ranges selected for each drug and investigational agent were based upon clinically achievable concentrations if the clinical Cmax of the agent was known.
Compounds. The drugs and investigational agents: abemaciclib (NSC768073), cobimetinib (NSC768068), divarasib (GDC6063, NSC841802), docetaxel (NSC628503), GDC-1971 (RLY-1971, NSC841576), gemcitabine (NSC613327), inavolisib (NSC800729), ipatasertib (NSC767898), KB-0742 (NSC834161), MRTX-1133 (NSC836407), osimertinib (NSC779217), RMC-4630 (NSC839698), RMC-6236 (NSC851965), RMC-6291 (NSC852671), Ro-3306 (NSC812927), sapanisertib (NSC764658), SN-38 (NSC673596), staurosporine (NSC755774), SY5609 (NSC837396), and tovorafenib (DAY101, NSC766906), were obtained from the National Cancer Institute (NCI) Developmental Therapeutics Program Chemical Repository. The FDA-approved anticancer drug set is available from the NCI Developmental Therapeutics Program. […] The stock solutions were prepared in dimethyl sulfoxide (DMSO, Sigma-Aldrich, St. Louis, MO, cat. D2650) at 800-fold the tested concentration and stored at -70 degrees C prior to their use. All drugs and investigational agents were tested over a range starting from a high concentration at or near the clinical Cmax and decreasing in half-log increments. If the clinical Cmax for an agent had not been determined, the highest concentration tested was 10 microM.
Cell Culture. All cells were maintained in an incubator at 37 degrees C and 5% CO2 with 95% humidity. The PDC lines were cultured according to standard operating procedures established by the NCI PDMR. All PDCs were thawed and cultured in Matrigel-coated flasks prepared with a working solution of 1X Ham's F-12 nutrient mix, without supplementation (Invitrogen, Waltham, MA, cat. 11765054), 100 U/mL penicillin-streptomycin (Invitrogen, cat. 15140122), and 2.5% Matrigel (Corning Inc., Corning, NY, cat. 354248) for the first three passages. The 362531-283-R-J2-PDC and 782815-120-R-J1-PDC lines were cultured in 6C/Colon 1B media, which includes advanced DMEM/F-12 (Thermo Fisher Scientific, cat. 12634028), 10 mM HEPES (Thermo Fisher Scientific, cat. 15630080), 1X GlutaMAX supplement (Thermo Fisher Scientific, cat. 35050061), 0.1 mg/mL primocin (InvivoGen, San Diego, CA, cat. ant-pm-2), 10% defined fetal bovine serum, heat inactivated (HyClone Laboratories Inc., Logan, UT, cat. SH30070.03HI), 50% L-WRN conditioned media (ATCC, cat. CRL-3276), 1.25 mM N-Acetyl-L-cysteine (Sigma-Aldrich, cat. A9165), 10 mM nicotinamide (Sigma-Aldrich, cat. N0636), 1X B-27 supplement (Thermo Fisher Scientific, cat. 17504044), 1X N-2 supplement (Thermo Fisher Scientific, cat. 17502048), 50 ng/mL human EGF (Thermo Fisher Scientific, cat. PHG0311), and 10 microM Y-27632 dihydrochloride (Tocris Bioscience, cat. 1254). The K12877-001-R-J1-PDC line was cultured in 6I media, which includes all 6C/Colon 1B media plus 10 ng/mL human FGF-10 (PeproTech, cat. 100-26), 1 ng/mL human FGF-2 (PeproTech, cat. 100-18B), 1 µM prostaglandin E2 (Tocris Bioscience, cat. 2296), […] hydrocortisone (Sigma-Aldrich, cat. H4001), and […] bovine insulin (Sigma-Aldrich, cat. I6634). The K86415-001-R-J1-PDC line was cultured in 6D media, which includes all 6C/Colon 1B media components minus the L-WRN conditioned media. The 485176-168-R4-J1-PDC was cultured in PANC media, which includes all 6C/Colon 1B media plus 100 ng/mL human FGF-10 (PeproTech, cat. 100-26), 500 nM SB-431542 (Selleckchem, cat. S1067), and 10 nM gastrin (Tocris Bioscience, cat. 3006). […]

The mark [1] stands for this setting: compound alone, run of 07/09/2024.

The term viability, T/C denotes the result in the treated group divided by that in the control group, in per cent. On to `C#Cc1c(F)ccc2cc(O)cc(-c3ncc4c(N5CC6CCC(C5)N6)nc(OCC56CCCN5CC(F)C6)nc4c3F)c12` (configuration not stated), for which the viability, T/C runs as follows: (compound 0.0316 µM) 107% [middle of 8 runs]; (compound 0.1 µM) 113% [middle of 8 runs]; (compound 0.316 µM) 109% [middle of 8 runs]; (compound 1 µM) 100% [middle of 8 runs]; (compound 3.16 µM) 81.1% [middle of 8 runs]; (compound 10 µM) 48% [middle of 8 runs].

Broadly, the IC50 is the point on the concentration scale where inhibition reaches its midpoint. `C=CC(=O)N1CCN(c2nc(OCC3CCCN3C)nc3c(F)c(-c4nc(N)cc(C)c4C(F)(F)F)c(Cl)cc23)C(C)C1` (configuration not stated): the viability, T/C is 66.5% (compound 0.01 µM, compound 0.0316 µM); 64.5% (compound 0.01 µM, compound 0.1 µM); 71% (compound 0.01 µM, compound 0.316 µM); 61.3% (compound 0.01 µM, compound 1 µM); 68.3% (compound 0.0316 µM, compound 0.00316 µM); 62.3% (compound 0.0316 µM, compound 0.01 µM). The viability, T/C runs as follows: (compound 0.0316 µM, compound 0.1 µM) 66.5%; (compound 0.0316 µM, compound 0.316 µM) 64%; (compound 0.0316 µM, compound 1 µM) 64.2%; (compound 0.0316 µM) 67.5%; (compound 0.1 µM, compound 0.00316 µM) 59.4%; (compound 0.1 µM, compound 0.01 µM) 63.4%. In addition, the viability, T/C reads like this: (compound 0.1 µM, compound 0.0316 µM) 57.5%; (compound 0.1 µM, compound 0.316 µM) 66.9%; (compound 0.1 µM, compound 1 µM) 62.5%; (compound 0.1 µM) 64.9%; (compound 0.316 µM, compound 0.00316 µM) 69.2%; (compound 0.316 µM, compound 0.01 µM) 68%. In addition, the viability, T/C (compound 0.316 µM, compound 0.0316 µM) was 59.4%; the viability, T/C (compound 0.316 µM, compound 0.1 µM) was 66%; the viability, T/C (compound 0.316 µM, compound 1 µM) is 68%; the viability, T/C (compound 0.316 µM) is 66.3%; the viability, T/C (compound 1 µM, compound 0.00316 µM) is 76.3%; the viability, T/C (compound 1 µM, compound 0.01 µM) is 65.6%. Further, the viability, T/C (compound 1 µM, compound 0.0316 µM) is 64%; the viability, T/C (compound 1 µM, compound 0.1 µM) was 66.4%; the viability, T/C (compound 1 µM, compound 0.316 µM) was 65%; the viability, T/C (compound 1 µM) is 67.3% [middle of 13 runs]. The IC50 (compound alone, run of 07/15/2024) is greater than 1000 nM and the IC50 (curve of compound) was greater than 1000 nM.

In the case of `C=CC(=O)Nc1cc(Nc2nccc(-c3cn(C)c4ccccc34)n2)c(OC)cc1N(C)CCN(C)C`, the viability, T/C reads like this: (compound 0.00316 µM) 103% [middle of 4 runs]; (compound 0.01 µM) 101% [middle of 4 runs]; (compound 0.0316 µM) 108% [middle of 4 runs]; (compound 0.1 µM) 110% [middle of 4 runs]; (compound 0.316 µM) 110% [middle of 4 runs]; (compound 1 µM) 103% [middle of 4 runs]. In addition, where the note is “curve of compound”, the IC50 was greater than 1000 nM.

In the case of `CC(C)NCC(C(=O)N1CCN(c2ncnc3c2C(C)CC3O)CC1)c1ccc(Cl)cc1` (configuration not stated), the viability, T/C by setting is: (compound 0.0316 µM) 105% [middle of 4 runs]; (compound 0.1 µM) 105% [middle of 4 runs]; (compound 0.316 µM) 98.4% [middle of 4 runs].

With `CC(C)n1nc(-c2ccc3oc(N)nc3c2)c2c(N)ncnc21`, the viability, T/C was 105% [middle of 4 runs] (compound 0.000316 µM); 97.4% [middle of 4 runs] (compound 0.001 µM); 93.7% [middle of 4 runs] (compound 0.00316 µM); 98.7% and 65.8% and 66.1% (compound 0.01 µM).

Consider `CCN1CCN(Cc2ccc(Nc3ncc(F)c(-c4cc(F)c5nc(C)n(C(C)C)c5c4)n3)nc2)CC1`, for which the viability, T/C runs as follows: (compound 0.00316 µM) 103% [middle of 4 runs]; (compound 0.01 µM) 104% [middle of 4 runs]; (compound 0.0316 µM) 103% [middle of 4 runs]. In addition, for the setting “curve of compound”, the IC50 was greater than 1000 nM.

Consider `CCc1c2c(nc3ccc(O)cc13)-c1cc3c(c(=O)n1C2)COC(=O)[C@]3(O)CC`, for which the viability, T/C (compound 0.003 µM) is 22.4% [middle of 4 runs]; the viability, T/C (compound 0.00949 µM) was 10.6% [middle of 4 runs]; the viability, T/C (compound 0.03 µM) was 7.82% [middle of 4 runs]; the viability, T/C (compound 0.0949 µM) was 5.87% [middle of 4 runs]; the viability, T/C (compound 0.3 µM) is 3.8% [middle of 4 runs]. Further, the concentration for half-maximal inhibition (IC50) (curve of compound) was 1.34 nM [middle of 4 runs].

In the case of `CCn1c(-c2cc(N3CCN(C)CC3)cnc2C(C)OC)c2c3cc(ccc31)-c1csc(n1)CC(NC(=O)C1CC1C)C(=O)N1CCCC(N1)C(=O)OCC(C)(C)C2` (configuration not stated), the viability, T/C was 117% [middle of 8 runs] (compound 0.000949 µM); 99.9% [middle of 7 runs] (compound 0.003 µM); 73.3% [middle of 8 runs] (compound 0.00949 µM); 52.7% [middle of 8 runs] (compound 0.03 µM); 39.1% [middle of 8 runs] (compound 0.0949 µM); 39.4% [middle of 8 runs] (compound 0.3 µM). For the same compound, the IC50 under setting [1] is 35.9 nM [middle of 8 runs].

`CCn1c(-c2cccnc2C(C)OC)c2c3cc(ccc31)N1CCOC(CC(NC(=O)C(C(C)C)N(C)C(=O)C3(F)CCN(C(=O)C#CC(C)(C)N(C)C)CC3)C(=O)N3CCCC(N3)C(=O)OCC(C)(C)C2)C1` (configuration not stated): the viability, T/C was 107% [middle of 8 runs] (compound 0.000949 µM); 99.7% [middle of 8 runs] (compound 0.003 µM); 90.7% [middle of 8 runs] (compound 0.00949 µM); 90.4% [middle of 8 runs] (compound 0.03 µM); 85.9% [middle of 8 runs] (compound 0.0949 µM); 83.2% [middle of 8 runs] (compound 0.3 µM). The IC50 under setting [1] was greater than 300 nM.

For the compound `Nc1ccn(C2OC(CO)C(O)C2(F)F)c(=O)n1` (configuration not stated), the viability, T/C runs as follows: (compound 0.00316 µM) 101% [middle of 4 runs]; (compound 0.0316 µM) 13.5% [middle of 4 runs]; (compound 0.1 µM) 9.12% [middle of 4 runs]; (compound 0.316 µM) 9.08% [middle of 4 runs]; (compound 1 µM) 8.33% [middle of 4 runs].

`O=C(c1ccc(F)c(F)c1Nc1ccc(I)cc1F)N1CC(O)([C@@H]2CCCCN2)C1`: the viability, T/C runs as follows: (compound 0.00316 µM) 102% [middle of 4 runs]; (compound 0.01 µM) 105% (2×) and 96.9% and 97.5%; (compound 0.0316 µM) 102% [middle of 4 runs].
